Data published in patent US20170304288A1, “Formulations of Methionine Aminopeptidase Inhibitors for Treating Infectious Diseases” (Texas Southern University, priority 2013, published 2017).

Test system: M. tuberculosis HN 3409
Assay type: cell-based, Mycobacterium tuberculosis
Conditions: preliminary results, 29 days

| Compound | Multi-Drug Resistant Tuberculosis Strain HN3409 |
| --- | --- |
| Oc1c(Br)cc(Cl)c2cccnc12 [drawing 31] | <5.0 µg/mL |
| O=C(N/N=C/c1c(O)ccc2ccccc12)c1ccncc1 [drawing 27] | >25.0 µg/mL |
| Oc1c(Cl)cc(Cl)c2cccnc12 | <1.0 µg/mL |
| Oc1ccccc1/C=N/Nc1ncnc2sc3c(c12)CCCC3 [drawing 28] | >25.0 µg/mL |
| Cc1nc(-c2ccccn2)nc(N(C)Cc2ccccc2)c1Cl [drawing 29] | <1.0 µg/mL |
| Oc1c(I)cc(Cl)c2cccnc12 [drawing 32] | <10.0 µg/mL |
| O=C1C(Cl)=C(Cl)C(=O)c2ccccc21 | <10.0 µg/mL |
| O=C1C(Br)=C(Br)C(=O)c2ccccc21 | <25.0 µg/mL |
